Results from patent publication US8937077B2, “Bicyclic diamines as janus kinase inhibitors” (Merck Sharp & Dohme Corp., priority 2010, dated 2015).

target: T1, Jak1 (Homo sapiens, UniProt P23458); test: Jak Biochemical HTRF Assay (Jak1); conditions: IC50 class, recombinant GST-tagged catalytic domain, read-out: Jak1 activity
T1 construct: using a recombinant purified GST-tagged catalytic domain for each enzyme; GST; purchased Invitrogen M4290
Source text: Compounds of formula I can be prepared according to the general procedures described in the Schemes and Examples herein, using appropriate materials. Representative compounds of the present invention are exemplified herein below. The compounds exemplified are not, however, to be construed as limiting the scope of the invention in any manner. The examples further illustrate details for the preparation of the compounds of the present invention. Those skilled in the art will readily understand that known variations of protecting groups, of reagents, as well as of the conditions and processes of the following preparative procedures, can be used to prepare these compounds. It is also understood that whenever a chemical reagent is not commercially available, such a chemical reagent can be readily prepared by those skilled in the art by either following or adapting known methods described in the literature or described herein. Chiral analogs were prepared via incorporation of chiral reagents or obtained after chiral chromatography separation of a racemically generated analog. All temperatures are degrees Celsius unless otherwise noted. Mass spectra (MS) were measured either by electrospray ion-mass spectroscopy (ESMS) or by atmospheric pressure chemical ionization mass spectroscopy (APCI). Jak1 data were obtained using the in vitro assay described below.
Jak Biochemical HTRF Assay Protocol
The ability of compounds to inhibit the activity of Jak1, Jak2, Jak3, and Tyk2 was measured using a recombinant purified GST-tagged catalytic domain for each enzyme (Invitrogen Jak1 #M4290, […]) in an HTRF format biochemical assay. The reactions employed a common peptide substrate, LCB-EQEDEPEGDYFEWLW-NH2 (in-house). The basic assay protocol is as follows: First, […] of diluted compounds in DMSO were dispensed into the wells of a dry 384-well Black plate (Greiner #781076) using a Labcyte Echo 555 acoustic dispenser. Subsequent reagent additions employed an Agilent Bravo. Next, 18 μL, of 1.11X enzyme and 1.11X substrate in 1X assay buffer (Invitrogen kinase buffer #PV3189, 2 mM DTT, 0.05% BSA) were added to the wells and shaken and then preincubated for 30 minutes at room temperature to allow compound binding to equilibrate. After equilibration, 2 μL of 10X ATP in 1X assay buffer was added to initiate the kinase reaction and the plates were shaken and then incubated at room temperature for 120 minutes. At the end of the incubation, 20 μL of 2X stop buffer (streptavidin-Dylight (Thermo #21845), Eu-tagged pY20 antibody (Perkin Elmer #AD0067), EDTA, HEPES, and Triton) was added to quench the reaction. Plates were shaken and centrifuged and then incubated 60 minutes at room temperature and then read on a Perkin Elmer Envision (λex=337 nm, λem=665 and 615 nm, TRF delay time=20 μs). HTRF signal=10,000*665 nm reading/615 nm reading. After normalization to untreated controls, the percent inhibition of the HTRF signal at each compound concentration was calculated. The plot of percent inhibition versus the log of compound concentration was fit with a 4-parameter dose response equation to calculate IC50 values.

T1 sequence (P23458 875-1153 limits assumed): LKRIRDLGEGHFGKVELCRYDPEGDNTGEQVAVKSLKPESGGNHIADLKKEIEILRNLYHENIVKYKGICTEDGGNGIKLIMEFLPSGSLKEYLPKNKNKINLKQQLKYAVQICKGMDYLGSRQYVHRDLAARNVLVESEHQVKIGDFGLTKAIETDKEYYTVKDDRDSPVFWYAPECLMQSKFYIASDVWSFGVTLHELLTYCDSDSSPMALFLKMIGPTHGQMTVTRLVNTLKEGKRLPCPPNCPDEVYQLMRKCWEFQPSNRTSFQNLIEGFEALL

| SMILES | IC50 [µM] |
| --- | --- |
| COc1cccc(COC(=O)N2CCCC3C2CCN3c2ncnc3[nH]ccc23)c1 (centres unmarked) [Example 3-4, 3-methoxybenzyl 1-(7H-pyrrolo[2,3-d]pyrimidin-4-yl)octahydro-4H-pyrrolo[3,2-b]-pyridine-4-carboxylate] | 0.01 to 0.1 |
| CC(C)(C)OC(=O)N1CCC[C@@H]2[C@H]1CCN2c1ncnc2[nH]ccc12 [Example 11, tert-butyl (3aR,7aR)-1-(7H-pyrrolo[2,3-d]pyrimidin-4-yl)octahydro-4H-pyrrolo[3,2-b]pyridin-4-carboxylate] | 0.1 to 1 |
| O=C(OC1CCCCC1)N1CCC[C@@H]2[C@H]1CCN2c1ncnc2[nH]ccc12 [Example 3-32, cyclohexyl (3aR,7aR)-1-(7H-pyrrolo[2,3-d]pyrimidin-4-yl)octahydro-4H-pyrrolo[3,2-b]pyridine-4-carboxylate] | 0.01 to 0.1 |
| O=C(OCCc1ccc2c(c1)CCO2)N1CCC[C@@H]2[C@H]1CCN2c1ncnc2[nH]ccc12 [Example 3-28, 2-(2,3-dihydro-1-benzofuran-5-yl)ethyl (3aR,7aR)-1-(7H-pyrrolo[2,3-d]pyrimidin-4-yl)octahydro-4H-pyrrolo[3,2-b]pyridine-4-carboxylate] | 0.01 to 0.1 |
| COC(=O)c1ccc(CN(C)C(=O)N2CCC[C@@H]3[C@H]2CCN3c2ncnc3[nH]ccc23)cc1 [Example 24, methyl 4-[(methyl{[(3aR,7aR)-1-(7H-pyrrolo[2,3-d]pyrimidin-4-yl)octahydro-4H-pyrrolo[3,2-b]-pyridin-4-yl]carbonyl}amino)methyl]benzoate] | 0.001 to 0.01 |
| O=C(OCCc1cccc2ccccc12)N1CCC[C@@H]2[C@H]1CCN2c1ncnc2[nH]ccc12 [Example 3-34, 2-naphthalen-1-ylethyl (3aR,7aR)-1-(7H-pyrrolo[2,3-d]pyrimidin-4-yl)octahydro-4H-pyrrolo[3,2-b]pyridine-4-carboxylate] | 0.1 to 1 |
| O=C(OCc1ccccc1)N1CCCC2C1CCN2c1ccnc2[nH]ccc12 [Example 30, (3aS,7aS and 3aR,7aR) benzyl 1-(1H-pyrrolo[2,3-b]pyridine-4-yl)octahydro-4H-pyrrolo[3,2-b]pyridine-4-carboxylate] | 0.1 to 1 |
| O=C(OCCCc1cccnc1)N1CCC[C@@H]2[C@H]1CCN2c1ncnc2[nH]ccc12 [Example 3-48, 3-pyridin-3-ylpropyl (3 aR,7 aR)-1-(7H-pyrrolo[2,3-d]pyrimidin-4-yl)octahydro-4H-pyrrolo[3,2-b]pyridine-4-carboxylate] | 0.01 to 0.1 |
| O=C(OCc1ccc2ccccc2c1)N1CCCC2C1CCN2c1ncnc2[nH]ccc12 (centres unmarked) [Example 3-15, naphthalen-2-ylmethyl 1-(7H-pyrrolo[2,3-d]pyrimidin-4-yl)octahydro-4H-pyrrolo[3,2-b]pyridine-4-carboxylate] | 0.01 to 0.1 |
| O=C(O)c1ccc(CNC(=O)N2CCC[C@@H]3[C@H]2CCN3c2ncnc3[nH]ccc23)cc1 [Example 25, 4-[({[(3aR,7aR)-1-(7H-pyrrolo[2,3-d]pyrimidin-4-yl)octahydro-4H-pyrrolo[3,2-b]pyridin-4-yl]carbonyl}amino)methyl]benzoic acid] | 0.1 to 1 |
| O=C(OCCc1ccccn1)N1CCC[C@@H]2[C@H]1CCN2c1ncnc2[nH]ccc12 [Example 3-37, 2-pyridin-2-ylethyl (3aR,7 aR)-1-(7H-pyrrolo[2,3-d]pyrimidin-4-yl)octahydro-4H-pyrrolo[3,2-b]pyridine-4-carboxylate] | 0.01 to 0.1 |
| O=C(OCc1cccnc1)N1CCCC2C1CCN2c1ncnc2[nH]ccc12 [Example 3-1, (3aS,7aS and 3aR,7aR) pyridin-3-ylmethyl 1-(7H-pyrrolo[2,3-d]pyrimidin-4-yl)octahydro-4H-pyrrolo[3,2-b]pyridine-4-carboxylate] | 0.01 to 0.1 |
| Cc1ccc(COC(=O)N2CCCC3C2CCN3c2ncnc3[nH]ccc23)cc1 (centres unmarked) [Example 3-17, 4-methylbenzyl 1-(7H-pyrrolo[2,3-d]pyrimidin-4-yl)octahydro-4H-pyrrolo[3,2-b]-pyridine-4-carboxylate] | 0.01 to 0.1 |
| O=C(OCCN1CCS(=O)(=O)CC1)N1CCC[C@@H]2[C@H]1CCN2c1ncnc2[nH]ccc12 [Example 3-27, 2-(1,1-dioxidothiomorpholin-4-yl)ethyl (3 aR,7 aR)-1-(7H-pyrrolo[2,3-d]pyrimidin-4-yl)octahydro-4H-pyrrolo[3,2-b]pyridine-4-carboxylate] | 0.1 to 1 |

Now from value to compound:

| IC50 [µM] | SMILES |
| --- | --- |
| 0.01 to 0.1 | CC(C(=O)N1CCC[C@@H]2[C@H]1CCN2c1ncnc2[nH]ccc12)N1CCOCC1 (mixture of isomers) [Example 29-43, 4-[(3aR,7aR)-4-(2-morpholin-4-ylpropanoyl)octahydro-1H-pyrrolo[3,2-b]pyridin-1-yl]7H-pyrrolo[2,3-d]pyrimidine] |
| 0.01 to 0.1 | CCC[C@H]1C[C@H]1C(=O)N1CCC[C@@H]2[C@H]1CCN2c1ncnc2[nH]ccc12 [Example 29-30, 4-[(3aR,7aR)-4-{[(1R,2S)-2-propylcyclopropyl]carbonyl}octahydro-1H-pyrrolo[3,2-b]pyridin-1-yl]-7H-pyrrolo[2,3-d]pyrimidine] |
| 0.1 to 1 | O=C(c1ccc(N2CCOCC2)cc1)N1CCCC2C1CCN2c1ncnc2[nH]ccc12 [Example 29-1, (3aS,7aS and 3aR,7aR) 4-{4-[(4-morpholin-4-ylphenyl)carbonyl]octahydro-1H-pyrrolo[3,2-b]pyridin-1-yl}-7H-pyrrolo[2,3-d]pyrimidine] |
| 0.01 to 0.1 | C[C@H](OC(=O)N1CCC[C@@H]2C1CCN2c1ncnc2[nH]ccc12)c1ccccc1 (stereo partly drawn) [Example 8-2, (1S)-1-phenylethyl (3aR,7 aR)-1-(7H-pyrrolo[2,3-d]pyrimidin-4-yl)octahydro-4-pyrrolo[3,2-b]pyridine-4-carboxylate] |
| 0.01 to 0.1 | O=C(c1cnccn1)N1CCC[C@@H]2[C@H]1CCN2c1ncnc2[nH]ccc12 [Example 29-13, 4-[(3aR,7aR)-4-(pyrazin-2-ylcarbonyl)octahydro-1H-pyrrolo[3,2-b]pyridin-1-yl]-7H-pyrrolo[2,3-d]pyrimidine] |
| 0.1 to 1 | O=C(c1cn2cccnc2n1)N1CCC[C@@H]2[C@H]1CCN2c1ncnc2[nH]ccc12 [Example 29-49, 4-[(3aR,7aR)-4-(imidazo[1,2-a]pyrimidin-2-ylcarbonyl)octahydro-1H-pyrrolo[3,2-b]pyridin-1-yl]-7H-pyrrolo[2,3-d]pyrimidine] |
| 0.01 to 0.1 | O=C(c1cncc2ccccc12)N1CCC[C@@H]2[C@H]1CCN2c1ncnc2[nH]ccc12 [Example 29-40, 4-{[(3aR,7aR)-1-(7H-pyrrolo[2,3-d]pyrimidin-4-yl)octahydro-4H-pyrrolo[3,2-b]pyridin-4-yl]carbonyl}isoquinoline] |
| 0.1 to 1 | O=C(c1cn2ccccc2n1)N1CCC[C@@H]2[C@H]1CCN2c1ncnc2[nH]ccc12 [Example 29-25, 4-[(3aR,7aR)-4-(imidazo[1,2-a]pyridin-2-ylcarbonyl)octahydro-1H-pyrrolo[3,2-b]pyridin-1-yl]-7H-pyrrolo[2,3-d]pyrimidine] |
| 0.01 to 0.1 | O=C(C1CCCCC1)N1CCC[C@@H]2[C@H]1CCN2c1ncnc2[nH]ccc12 [Example 29-15, 4-[(3aR,7aR)-4-(cyclohexylcarbonyl)octahydro-1H-pyrrolo[3,2-b]pyridin-1-yl]-7H-pyrrolo[2,3-d]pyrimidine] |
| 0.1 to 1 | O=C(c1ccccn1)N1CCC[C@@H]2[C@H]1CCN2c1ncnc2[nH]ccc12 [Example 29-11, 4-[(3aR,7aR)-4-(pyridin-2-ylcarbonyl)octahydro-1H-pyrrolo[3,2-b]pyridin-1-yl]-7H-pyrrolo[2,3-d]pyrimidine] |

same assay, conditions: recombinant GST-tagged catalytic domain, 31.8 μM ATP, read-out: Representative IC50 values

| IC50 [µM] | SMILES |
| --- | --- |
| 0.011 | O=C(OC1CCCCC1)N1CCC[C@@H]2[C@H]1CCN2c1ncnc2[nH]ccc12 [Example 3-32, cyclohexyl (3aR,7aR)-1-(7H-pyrrolo[2,3-d]pyrimidin-4-yl)octahydro-4H-pyrrolo[3,2-b]pyridine-4-carboxylate] |
| 0.132 | O=C(c1cn2cccnc2n1)N1CCC[C@@H]2[C@H]1CCN2c1ncnc2[nH]ccc12 [Example 29-49, 4-[(3aR,7aR)-4-(imidazo[1,2-a]pyrimidin-2-ylcarbonyl)octahydro-1H-pyrrolo[3,2-b]pyridin-1-yl]-7H-pyrrolo[2,3-d]pyrimidine] |
